In ChEMBL document CHEMBL3861965, “Stereochemical Assignment and Biological Evaluation of BE-14106 Unveils the Importance of One Acetate Unit for the Antifungal Activity of Polyene Macrolactams” (J Nat Prod, 2016) one finds MIC and Activity data, which are given here for 2 compounds.

The structures appear in SMILES notation. ≈ marks a conversion by molar mass, not a printed value. Calls of active or inactive are those of the source. The rule behind the calls is not given here.

Common to all, as to format: functional
The nature of experiment [1]: Antifungal activity against wild type fission yeast JY1 after 24 hrs by XTT assay. The settings on record: Schizosaccharomyces pombe. For orientation: Tetrazolium dyes change colour on reduction, which living cells bring about.
Experiment [2] is described as follows: Antifungal activity against fission yeast harboring deltaerg2 mutant after 24 hrs by turbidity assay. Conditions: Schizosaccharomyces pombe.
Experiment [3] is described as follows: Antifungal activity against wild type fission yeast JY1 after 24 hrs by turbidity assay. Conditions: Schizosaccharomyces pombe.
The nature of experiment [4]: Antifungal activity against fission yeast harboring deltaerg31/deltaerg32 mutant after 24 hrs by turbidity assay. Conditions: Schizosaccharomyces pombe.
Experiment [5] can be described thus: Antifungal activity against fission yeast harboring deltaerg5 mutant after 24 hrs by turbidity assay. The settings on record: Schizosaccharomyces pombe.
The nature of experiment [6]: Antifungal activity against fission yeast harboring deltasts1/erg4 mutant after 24 hrs by turbidity assay. The settings on record: Schizosaccharomyces pombe.
In experiment [7] the test system is Schizosaccharomyces pombe. The experiment is described as follows: Antifungal activity against wild type fission yeast JY1 assessed as accumulation of cell wall material at 0.25 uM after 2 hrs by cfw-dye based fluorescence microscopic analysis.

In general, MIC refers to the lowest concentration that inhibits growth of the organism. High values mean a need for much substance, low ones inhibition by little substance.

For the compound `C[C@@H]1[C@H](O)[C@@H](C)/C=C/C=C/C=C/C=C/C=C/C=C/C=C/[C@H](O[C@@H]2O[C@H](C)[C@@H](O)[C@H](N)[C@@H]2O)C[C@@H]2O[C@](O)(C[C@@H](O)C[C@@H](O)[C@H](O)CC[C@@H](O)C[C@@H](O)CC(=O)O[C@H]1C)C[C@H](O)[C@H]2C(=O)O`, it took 0.27 µM (≈ 0.25 µg/mL) to inhibit growth in experiment [1] (MIC).

Turning to `CCC/C=C/C=C/C[C@@H]1C/C=C/C=C(C)/C=C/C=C\[C@@H](O)[C@@H](O)/C=C(C)/C=C/C=C/C(=O)N1`, the MIC in experiment [2], in experiment [3], in experiment [4], in experiment [5] and in experiment [6] was 0.13 to 0.28 µM (≈ 0.0585 to 0.126 µg/mL) throughout. Moreover, the result in experiment [7] was Active.
